# Experimental data taken from USRE42014E1, “Pharmaceutical compositions” (Novartis AG, priority 1996, dated 2010).
# Tests used:
# [1] = Solubilization of active agent in fat emulsions: filtration through 0.2 micron Nuclepore filter, retained drug determined gravimetrically and/or by HPLC
# Protocol: (§1) The solubilization efficacy was determined by filtering the drug loaded fat emulsion through a 0.2 micron Nuclepore filter. Drug compound which is not solubilized was held back by the filter and determined gravimetrically and/or by HPLC measurements.
# Further sodium oleate was used, instead of POPG.Na.
# Propylene glycol was then used to replace a part of the ethanol content.
# [2] = per 100 ml of a 10% fat emulsion
# Protocol: as §1
compound,measurement,setting,value
"C/C=C/C[C@@H](C)C(=O)[C@H]1C(=O)N[C@@H](C(C)C)C(=O)N(C)CC(=O)N(C)[C@@H](CC(C)C)C(=O)N[C@@H](C(C)C)C(=O)N(C)[C@@H](CC(C)C)C(=O)N[C@@H](C)C(=O)N[C@H](C)C(=O)N(C)[C@@H](CC(C)C)C(=O)N(C)[C@@H](CC(C)C)C(=O)N(C)[C@@H](C(C)C)C(=O)N1C [PSC 833, [3′-desoxy-3′-oxo-MeBmt]^1-[Val]^2-Ciclosporin]",PSC 833 solubilized,"[1]; plain PSC 833 solution in ethanol injected into a fat emulsion, after 30 minutes, no stabiliser",87%
same,PSC 833 retained on the filter,"[1]; with POPG.Na or sodium oleate, after 5 minutes, determined by HPLC",less than 0.1%
same,PSC 833 solubilized by 100 ml of a 10% fat emulsion,[2],up to 2 gram
